Where a chain is given by its changes, count along the chain named.
Columns and labels:
Vrg4 N221A variant = target: T1, Vrg4 N221A variant (Saccharomyces cerevisiae, UniProt P40107, N221A); assay: IC50 competition of 3H-GMP uptake into proteoliposomes, N221A variant; format: biochemical
T1 construct: GFP (cleaved yes); made in house; host or cells: S. cerevisiae strain BJ5460
Procedure: (§1) Vrg4 was reconstituted into liposomes made from yeast polar lipids using the dilution method into preformed lipid vesicles. Chloroform was removed from yeast polar lipids (Avanti polar lipids) through the use of a rotary evaporator to obtain a thin film. The lipids were washed twice in pentane and then resuspended at 5 mg ml^−1 in lipid buffer (20 mM HEPES pH 7.5, 100 mM KCl). These lipid vesicles were frozen and thawed twice in liquid nitrogen and stored at −80 °C until required. For reconstitution, the lipids were thawed and then extruded first through a 0.8-μm filter and then through a 0.4-μm filter. Purified Vrg4 in DM (at 0.5 μg μl^−1 concentration) was added to the lipids at a final lipid:protein ratio of 80:1 and incubated for 1 h at room temperature, then for a further 1 h on ice; for the no-protein liposome control, the same volume of gel filtration buffer containing 0.3% DM was added. […] The amount of protein (both wild-type and mutant variants) reconstituted into the lipids was quantified by SDS–PAGE and densitometry.
(§2) To analyse transport activity, proteoliposomes were thawed and the desired concentration of internal substrate was added (typically 0.5 mM for mutant variant analysis). […] The amount of GMP transported inside the liposomes was calculated by scintillation counting in Ultima Gold (Perkin Elmer) […]

Vrg4 N220A variant = target: T2, Vrg4 N220A variant (Saccharomyces cerevisiae, UniProt P40107, N220A); assay: IC50 competition of 3H-GMP uptake into proteoliposomes, N220A variant; format: biochemical
T2 construct: GFP (cleaved yes); made in house; host or cells: S. cerevisiae strain BJ5460
T2 sequence (P40107 whole entry N220A): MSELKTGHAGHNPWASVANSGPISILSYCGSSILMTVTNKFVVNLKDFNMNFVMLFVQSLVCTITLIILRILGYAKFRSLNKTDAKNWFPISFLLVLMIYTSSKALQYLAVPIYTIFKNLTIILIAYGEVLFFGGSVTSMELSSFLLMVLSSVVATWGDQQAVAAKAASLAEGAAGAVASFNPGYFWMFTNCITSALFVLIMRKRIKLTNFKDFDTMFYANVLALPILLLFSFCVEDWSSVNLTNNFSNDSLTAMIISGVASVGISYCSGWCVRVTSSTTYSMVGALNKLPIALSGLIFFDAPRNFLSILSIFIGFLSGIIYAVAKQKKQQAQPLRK
Procedure: as §1, §2

Vrg4 wild type (WT) = system: Vrg4 wild type (WT); design: method as in PMID 29143814; conditions: WT Vrg4 in yeast polar lipid liposomes, 0.5 mM GMP inside, 3H-GMP uptake, cold competitor outside, 3 min; WT data published previously ref 10; cited from earlier work
Vrg4 S266A variant = target: T3, Vrg4 S266A variant (Saccharomyces cerevisiae, UniProt P40107, S266A); assay: IC50 competition of 3H-GMP uptake into proteoliposomes, S266A variant; format: biochemical; conditions: in words
T3 construct: GFP (cleaved yes); made in house; host or cells: S. cerevisiae strain BJ5460
T3 sequence (P40107 whole entry S266A): as the sequence (P40107 whole entry N220A) above, with A220N, S266A counted along it
Procedure: as §1, §2

Vrg4 Y281A variant = target: T4, Vrg4 Y281A variant (Saccharomyces cerevisiae, UniProt P40107, Y281A); assay: Thermal stability in the presence of ligand, Y281A variant; format: binding; conditions: 1 mM GMP, N=3
T4 construct: GFP (cleaved yes); made in house; host or cells: S. cerevisiae strain BJ5460
T4 sequence (P40107 whole entry Y281A): as the sequence (P40107 whole entry N220A) above, with A220N, Y281A counted along it
Procedure: (§3) Thermal stability of protein samples was analysed using a Prometheus NT.48 (NanoTemper Technologies)[39]. The proteins were diluted to a final concentration of 0.7 mg ml^−1 into buffer containing 20 mM Hepes, pH 7.5, 50 mM KCl, 2 mM magnesium sulphate and 0.03% (w/v) DDM or 0.3% DM. Thermal measurements were carried out in a range from 20 to 95 °C with 1 °C per min steps. The resulting melting curves were generated by plotting the first derivative of the fluorescence ratio at 330 nm/350 nm (excitation 280 nm) against temperature. For stability in the presence of ligand (GMP) the ligand was added to the sample at a final concentration of 0.5 mM and the sample was incubated at room temperature for 5 min prior to analysis. For the sample in liposomes, reconstituted Vrg4, at a protein concentration of 0.4 mg ml^−1, in yeast polar lipids were prepared in 20 mM Hepes, pH 7.5, 50 mM KCl, 2 mM magnesium sulphate and extruded through a 0.4 μm membrane prior to analysis. For the solubilised liposome sample, liposomes were solubilised in 1.5% DDM for one hour and centrifuged at 100,000 × g for 30 min prior to analysis.

Vrg4 Y281F variant = target: T5, Vrg4 Y281F variant (Saccharomyces cerevisiae, UniProt P40107, Y281F); assay: IC50 competition of 3H-GMP uptake into proteoliposomes, Y281F variant; format: biochemical
T5 construct: GFP (cleaved yes); made in house; host or cells: S. cerevisiae strain BJ5460
T5 sequence (P40107 whole entry Y281F): as the sequence (P40107 whole entry N220A) above, with A220N, Y281F counted along it
Procedure: as §1, §2

Vrg4 K118A variant [1] = target: T6, Vrg4 K118A variant (Saccharomyces cerevisiae, UniProt P40107, K118A); assay: Thermal stability in the presence of ligand, K118A variant; format: binding; conditions: 1 mM GMP
T6 construct: GFP (cleaved yes); made in house; host or cells: S. cerevisiae strain BJ5460
T6 sequence (P40107 whole entry K118A): as the sequence (P40107 whole entry N220A) above, with K118A, A220N counted along it
Procedure: as §3

Vrg4 S269A variant = target: T7, Vrg4 S269A variant (Saccharomyces cerevisiae, UniProt P40107, S269A); assay: IC50 competition of 3H-GMP uptake into proteoliposomes, S269A variant; format: biochemical; conditions: S269A variant (removal of S269); in words
T7 construct: GFP (cleaved yes); made in house; host or cells: S. cerevisiae strain BJ5460
T7 sequence (P40107 whole entry S269A): as the sequence (P40107 whole entry N220A) above, with A220N, S269A counted along it
Procedure: as §1, §2

Vrg4 [2] = target: T8, Vrg4 (Saccharomyces cerevisiae, UniProt P40107); assay: Liposome-based transport rates under different antiport conditions; format: biochemical; conditions: 22 °C, rank among antiport conditions
T8 construct: GFP (cleaved yes); made in house; host or cells: S. cerevisiae strain BJ5460
T8 sequence (P40107 1-337): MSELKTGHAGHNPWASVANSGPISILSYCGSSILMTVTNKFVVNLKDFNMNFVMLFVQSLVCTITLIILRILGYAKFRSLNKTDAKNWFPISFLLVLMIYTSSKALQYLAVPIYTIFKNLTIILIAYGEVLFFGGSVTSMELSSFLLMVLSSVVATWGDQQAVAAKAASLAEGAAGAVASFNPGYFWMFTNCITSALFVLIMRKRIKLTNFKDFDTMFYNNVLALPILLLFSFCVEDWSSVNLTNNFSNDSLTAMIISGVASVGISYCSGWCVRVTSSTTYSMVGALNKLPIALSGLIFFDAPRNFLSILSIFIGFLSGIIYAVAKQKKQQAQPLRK
Procedure: as §1, §2

Vrg4 [3] = target: T8, Vrg4; design: method as in PMID 29143814; conditions: GDP-mannose:GMP compared with GMP:GMP in liposome-based assays ref 10; cited from earlier work
Vrg4 K118A variant [4] = target: T9, Vrg4 K118A variant (Saccharomyces cerevisiae, UniProt P40107 1-337, K118A); assay: cell-based or functional assay
T9 sequence: T8 sequence (P40107 1-337) with K118A

T1 sequence (P40107 whole entry N221A): as the sequence (P40107 whole entry N220A) above, with A220N, N221A counted along it

## Nc1ncnc2c1ncn2[C@@H]1O[C@H](COP(=O)(O)O)[C@@H](O)[C@H]1O [AMP]
Vrg4 N221A variant
  IC50: 27 µM
Vrg4 N220A variant; N220A variant, IC50 analysis, in words
  affinity compared with WT: markedly reduced
Vrg4 wild type (WT)
  IC50: 50 µM

## Nc1nc2c(ncn2[C@@H]2O[C@H](COP(=O)(O)O)[C@@H](O)[C@H]2O)c(=O)[nH]1 [GMP, guanine monophosphate]
Vrg4 N221A variant
  IC50: 22 µM
Vrg4 N220A variant
  IC50: 12 µM
Vrg4 wild type (WT)
  IC50: 7 µM
Vrg4 S266A variant
  IC50 value for GMP transport compared with WT: significant increase
Vrg4 Y281A variant
  thermal stabilisation of the protein by ligand: not stabilised
Vrg4 Y281F variant
  IC50: 23 µM
Vrg4 K118A variant [1]
  thermal stabilisation of the protein by ligand: stabilised to a similar extent as WT Vrg4
Vrg4 S269A variant
  change in the IC50 compared with WT: did not result in any significant change
Vrg4 [2]; GMP:AMP antiport, 1 mM AMP inside, 20 μM GMP outside
  transport rate: slowest

## Nc1nc2c(ncn2[C@@H]2O[C@H](COP(=O)(O)OP(=O)(O)O[C@H]3O[C@H](CO)[C@@H](O)[C@H](O)[C@@H]3O)[C@@H](O)[C@H]2O)c(=O)[nH]1 [GDP-mannose]
Vrg4 [3]
  transport efficiency: more efficient
Vrg4 wild type (WT)
  IC50: 7.6 µM
Vrg4 S266A variant; IC50 analysis
  affinity compared with WT: only slightly reduced
Vrg4 Y281F variant; Y281F variant, IC50 analysis, in words
  affinity of the variant compared with wild type: remains the same as wild type
Vrg4 S269A variant
  change in the IC50 compared with WT: did not result in any significant change
Vrg4 [2]; GDP-mannose:GDP-mannose antiport (transported against itself), 0.5 mM inside, 20 μM outside
  transport rate: fastest

B1: Vrg4, GDP-mannose transporter from Saccharomyces cerevisiae (wild type) (natural protein)
chain: T8 sequence (P40107 1-337)
Vrg4 K118A variant [4]
  dominant negative assay: transport of 3H-GMP into liposomes reconstituted with equimolar WT and K118A (also at 75 and 25% WT), relative to WT alone: ~75%
